Reference: patent publication US10633407B2, “14-membered ketolides and methods of their preparation and use” (President and Fellows of Harvard College, priority 2014, dated 2020)
In brackets after ≈: the same amount, converted by molar mass.

Key:
Test in all cases: CLSI broth dilution MIC determination
Assay type in all cases: cell-based
[1] = system: E. coli ATCC 25922; settings: E. coli ATCC 25922; Gram-negative
Method in brief: (§1)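 The lowest inhibitory concentration was found by broth dilution done to CLSI standards. Resistance genotypes on the panel can be constitutive or inducible, and azithromycin and solithromycin accompany many tests as reference macrolides.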

[2] = system: E. coli CTX-M-14; settings: Gram-negative
Method in brief: as §1

[3] = system: E. coli NDM-1; settings: Gram-negative
Method in brief: as §1

[4] = system: E. coli TEM-1; settings: E. coli TEM-1; Gram-negative
Method in brief: as §1

[5] = system: H. influenzae ATCC49247; settings: Gram-negative
Method in brief: as §1

[6] = system: K. pneumoniae TEM-10; settings: Gram-negative
[7] = system: S. aureus ATCC 29213; settings: S. aureus ATCC 29213; Gram-positive
Method in brief: as §1

[8] = system: S. aureus MRSA: USA100; settings: S. aureus MRSA: USA100; Gram-positive
Method in brief: as §1

[9] = system: S. aureus MRSA: USA300; settings: S. aureus MRSA: USA300; Gram-positive
Method in brief: as §1

[10] = system: S. aureus USA600, GISA; settings: S. aureus USA600, GISA; Gram-positive
Method in brief: as §1

[11] = system: S. aureus erm A genotype; settings: S. aureus erm A genotype; Gram-positive
Method in brief: as §1

[12] = system: S. pneumoniae ATCC 49619; settings: S. pneumoniae ATCC 49619; Gram-positive
Method in brief: as §1

[13] = system: S. pneumoniae erm B + mef A genotype; settings: S. pneumoniae erm B + mef A genotype; Gram-positive
Method in brief: as §1

[14] = system: S. pneumoniae mef A genotype (second strain so labelled); settings: Gram-positive
Method in brief: as §1

[15] = system: S. pyogenes ATCC 19615; settings: S. pyogenes ATCC 19615; Gram-positive
[16] = system: S. pyogenes Macrolide-resistant; settings: S. pyogenes Macrolide-resistant; Gram-positive
[17] = system: E. faecalis ATCC 29212; settings: E. faecalis ATCC 29212; Gram-positive
[18] = system: E. faecalis Vancomycin-resistant; settings: E. faecalis Vancomycin-resistant; Gram-positive
[19] = system: A. baumannii ATCC 19606; settings: A. baumannii ATCC 19606; Gram-negative
[20] = system: A. baumannii imipenem-resistant; settings: Gram-negative
[21] = system: A. baumannii chromosomal class C; settings: Gram-negative
[22] = system: A. baumannii IMP-4; settings: Gram-negative
[23] = system: K. pneumoniae ATCC 10031; settings: K. pneumoniae ATCC 10031; Gram-negative
[24] = system: K. pneumoniae KPC-2; settings: Gram-negative
[25] = system: K. pneumoniae SHV-12; settings: Gram-negative
[26] = system: P. aeruginosa ATCC 27853; settings: P. aeruginosa ATCC 27853; Gram-negative
[27] = system: P. aeruginosa HPA101-1477; settings: Gram-negative
[28] = system: H. influenzae Erythro >4, Azithro 1; settings: H. influenzae Erythro >4, Azithro 1; Gram-negative
Text: MIC data was collected for the novel macrolides that this platform has produced against over 21 unique strains of B. subtilis, E. coli, S. aureus, S. pneumoniae, and H. influenzae, including several multidrug-resistant strains, with a special focus on macrolide resistant mechanisms (vide supra). […] CLSI standard procedures for broth dilution MIC determination were used. […] These genotypes can be constitutive or inducible.

Row | SMILES | MIC [1] [µg/mL] | MIC [2] [µg/mL] | MIC [3] [µg/mL] | MIC [4] [µg/mL] | MIC [5] [µg/mL] | MIC [6] [µg/mL] | MIC [7] [µg/mL] | MIC [8] [µg/mL] | MIC [9] [µg/mL] | MIC [10] [µg/mL] | MIC [11] [µg/mL] | MIC [12] [µg/mL] | MIC [13] [µg/mL] | MIC [14] [µg/mL] | MIC [15] [µg/mL] | MIC [16] [µg/mL] | MIC [17] [µg/mL] | MIC [18] [µg/mL] | MIC [19] [µg/mL] | MIC [20] [µg/mL] | also measured
1 | CC[C@H]1OC(=O)[C@H](C)C(=O)[C@H](C)[C@@H](O[C@@H]2OC(C)CC(N(C)C)C2O)[C@](C)(OC)C[C@@H](C)C(=O)[C@H](C)[C@H]2N(CC3CC3Cn3cc(-c4cccc(N)c4)nn3)C(=O)O[C@]12C (single isomer, unassigned) [FSM-100428] | 32 (≈ 38.1 µM) | > 32 | > 32 | 32 (≈ 38.1 µM) | 4 (≈ 4.77 µM) | 32 (≈ 38.1 µM) | < 0.0312 | > 32 | 4 (≈ 4.77 µM) | > 32 | > 32 | < 0.0312 | 0.0625 | < 0.0312 | < 0.0312 | < 0.0312 | < 0.0312 | > 32 | 16 (≈ 19.1 µM) | 16 (≈ 19.1 µM) | MIC [21]: 16 µg/mL (≈ 19.1 µM); MIC [22]: > 32 µg/mL; MIC [23]: 16 µg/mL (≈ 19.1 µM); MIC [24]: > 32 µg/mL; MIC [25]: > 32 µg/mL; MIC [26]: > 32 µg/mL; MIC [27]: > 32 µg/mL; MIC [28]: 2 µg/mL (≈ 2.38 µM)
2 | CC[C@H]1OC(=O)[C@H](C)C(=O)[C@H](C)[C@@H](O[C@@H]2OC(C)CC(N(C)C)C2O)[C@](C)(OC)C[C@@H](C)C(=O)[C@H](C)[C@H]2N(CC3CC3Cn3cc(-c4cccc(N)c4)nn3)C(=O)O[C@]12C (single isomer, unassigned) [FSM-100434] | > 32 | > 32 | > 32 | > 32 | > 32 | > 32 | 0.25 (≈ 0.298 µM) | > 32 | > 32 | > 32 | > 32 | < 0.0312 | 1 | 0.125 (≈ 0.149 µM) | < 0.0312 | < 0.0312 | < 0.0312 | > 32 | 16 (≈ 19.1 µM) | 16 (≈ 19.1 µM) | MIC [21]: 16 µg/mL (≈ 19.1 µM); MIC [22]: > 32 µg/mL; MIC [23]: 32 µg/mL (≈ 38.1 µM); MIC [24]: > 32 µg/mL; MIC [25]: > 32 µg/mL; MIC [26]: > 32 µg/mL; MIC [27]: > 32 µg/mL; MIC [28]: > 32 µg/mL
3 | CC[C@H]1OC(=O)[C@H](C)C(=O)[C@H](C)[C@@H](O[C@@H]2OC(C)CC(N(C)C)C2O)[C@](C)(OC)C[C@@H](C)C(=O)[C@H](C)[C@H]2N(C/C=C/Cn3cc(-c4nccs4)nn3)C(=O)O[C@]12C (stereo partly shown) [FSM-11559] | > 32 | > 32 | > 32 | 32 (≈ 39.2 µM) | 4 (≈ 4.9 µM) | > 32 | 0.125 (≈ 0.153 µM) | > 32 | 4 (≈ 4.9 µM) | > 32 | > 32 | ≤ 0.0312 | 1 | 0.125 (≈ 0.153 µM) | ≤ 0.0312 | 0.125 (≈ 0.153 µM) | ≤ 0.0312 | > 32 | 16 (≈ 19.6 µM) | 32 (≈ 39.2 µM) | MIC [21]: 16 µg/mL (≈ 19.6 µM); MIC [22]: > 32 µg/mL; MIC [23]: 4 µg/mL (≈ 4.9 µM); MIC [24]: > 32 µg/mL; MIC [25]: > 32 µg/mL; MIC [26]: > 32 µg/mL; MIC [27]: > 32 µg/mL; MIC [28]: 4 µg/mL (≈ 4.9 µM)
4 | CC[C@H]1OC(=O)[C@@](C)(F)C(=O)[C@H](C)[C@@H](O[C@@H]2OC(C)CC(N(C)C)C2O)[C@](C)(OC)C[C@@H](C)C(=O)[C@H](C)[C@H]2N(C/C=C/Cn3cc(-c4nccs4)nn3)C(=O)O[C@]12C (stereo partly shown) [FSM-11562] | 16 (≈ 19.2 µM) | > 32 | > 32 | 16 (≈ 19.2 µM) | 4 (≈ 4.79 µM) | 32 (≈ 38.3 µM) | 0.0625 (≈ 0.0748 µM) | > 32 | 1 (≈ 1.2 µM) | > 32 | > 32 | ≤ 0.0312 | 0.25 | 0.0625 (≈ 0.0748 µM) | ≤ 0.0312 | 0.125 (≈ 0.15 µM) | ≤ 0.0312 | > 32 | 8 (≈ 9.58 µM) | 8 (≈ 9.58 µM) | MIC [21]: 8 µg/mL (≈ 9.58 µM); MIC [22]: > 32 µg/mL; MIC [23]: 4 µg/mL (≈ 4.79 µM); MIC [24]: > 32 µg/mL; MIC [25]: > 32 µg/mL; MIC [26]: > 32 µg/mL; MIC [27]: > 32 µg/mL; MIC [28]: 2 µg/mL (≈ 2.4 µM)
5 | CC[C@H]1OC(=O)[C@H](C)C(=O)[C@H](C)[C@@H](O[C@@H]2OC(C)CC(N(C)C)C2O)[C@](C)(OC)C[C@@H](C)C(=O)[C@H](C)[C@H]2N(CC#CCn3cc(-c4cccc(N)c4)nn3)C(=O)O[C@]12C (stereo partly shown) [FSM-100239] | 16 (≈ 19.4 µM) | > 32 | > 32 | 16 (≈ 19.4 µM) | 1 (≈ 1.22 µM) | 32 (≈ 38.9 µM) | ≤ 0.0312 | > 32 | 0.25 (≈ 0.304 µM) | > 32 | > 32 | ≤ 0.0312 | 0.0625 | ≤ 0.0312 | ≤ 0.0312 | ≤ 0.0312 | ≤ 0.0312 | 16 (≈ 19.4 µM) | 8 (≈ 9.72 µM) | 4 (≈ 4.86 µM) | MIC [21]: 2 µg/mL (≈ 2.43 µM); MIC [22]: > 32 µg/mL; MIC [23]: 4 µg/mL (≈ 4.86 µM); MIC [24]: > 32 µg/mL; MIC [25]: > 32 µg/mL; MIC [26]: > 32 µg/mL; MIC [27]: > 32 µg/mL; MIC [28]: 1 µg/mL (≈ 1.22 µM)
6 | CC[C@H]1OC(=O)[C@@](C)(F)C(=O)[C@H](C)[C@@H](O[C@@H]2OC(C)CC(N(C)C)C2O)[C@](C)(OC)C[C@@H](C)C(=O)[C@H](C)[C@H]2N(C/C=C/Cn3cc(-c4cnc(N)s4)nn3)C(=O)O[C@]12C (stereo partly shown) [FSM-100240] | > 32 | > 32 | > 32 | 32 (≈ 37.6 µM) | 1 (≈ 1.18 µM) | 32 (≈ 37.6 µM) | ≤ 0.0312 | > 32 | 1 (≈ 1.18 µM) | > 32 | > 32 | ≤ 0.0312 | 0.125 | 0.25 (≈ 0.294 µM) | ≤ 0.0312 | 0.25 (≈ 0.294 µM) | ≤ 0.0312 | 8 (≈ 9.41 µM) | 32 (≈ 37.6 µM) | 32 (≈ 37.6 µM) | MIC [21]: 16 µg/mL (≈ 18.8 µM); MIC [22]: > 32 µg/mL; MIC [23]: 4 µg/mL (≈ 4.71 µM); MIC [24]: > 32 µg/mL; MIC [25]: > 32 µg/mL; MIC [26]: > 32 µg/mL; MIC [27]: > 32 µg/mL; MIC [28]: 1 µg/mL (≈ 1.18 µM)
7 | CC[C@H]1OC(=O)[C@H](C)C(=O)[C@H](C)[C@@H](O[C@@H]2OC(C)CC(N(C)C)C2O)[C@](C)(OC)C[C@@H](C)C(=O)[C@H](C)[C@H]2N(C/C=C/Cn3cc(-c4ccccn4)nn3)C(=O)O[C@]12C (stereo partly shown) [FSM-100341] | > 32 | > 32 | > 32 | 32 (≈ 39.5 µM) | 1 (≈ 1.23 µM) | 32 (≈ 39.5 µM) | < 0.0312 | > 32 | 2 (≈ 2.47 µM) | > 32 | > 32 | < 0.0312 | 0.25 | < 0.0312 | < 0.0312 | < 0.0312 | < 0.0312 | > 32 | 16 (≈ 19.7 µM) | 16 (≈ 19.7 µM) | MIC [21]: 32 µg/mL (≈ 39.5 µM); MIC [22]: > 32 µg/mL; MIC [23]: 8 µg/mL (≈ 9.86 µM); MIC [24]: > 32 µg/mL; MIC [25]: > 32 µg/mL; MIC [26]: > 32 µg/mL; MIC [27]: > 32 µg/mL; MIC [28]: 1 µg/mL (≈ 1.23 µM)
